Values quoted from earlier work as cited in US20080153788A1, “NOVEL COMPOSITION TO INCREASE MUSCLE STRENGTH” (ORAL DELIVERY TECHNOLOGIES, priority 2006, published 2008).

Tests used:
[1] = humans; prior-art description
[2] = for injection

Structure (SMILES)	period over which concentration declines after the peak [1]	time to concentration peak after administration [1]	solubility in oily media [2]
C[C@]12CC[C@H]3[C@@H](CCC4=CC(O)CC[C@@]43C)[C@@H]1CC[C@@H]2O (stereo partly drawn) [4-androstene-3,17β-diol]	3 to 4 h	≤ 90 min	
CCCCCCCCCCC(=O)O[C@H]1CC[C@H]2[C@H]3[C@H](CC[C@]12C)[C@H]1CCC(=O)C=C1C[C@H]3C [MENT undecanoate, (7α,17β)-7-methyl-17-[(1-α-oundecyl)oxy]estr-4en-3one]			good solubility
